Reference: patent US7135466B2 (Kirin Beer Kabushiki Kaisha, priority 1999, dated 2006)
Where two headings read alike, the source gives them in different places.

Target: T1, PDGF-Ra (Homo sapiens, UniProt P16234)
T1 construct: host or cells: G-292 human osteosarcoma cells
Assay: Inhibitory activity against PDGF-Ra phosphorylation by PDGF-AA stimulation using G292
Format: cell-based
Conditions: for IC50: > means inhibition at indicated concentration not more than 50%, < and << not less than 50%, read-out: PDGF (E) IC50; for inhibition at 0.1 µM: G292, at 100 nM, read-out: PDGF (E) inhibition (%) at 100 nM
How it was run: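 G-292 human osteosarcoma cells, serum-starved overnight in 0.1% FBS, were pretreated with compound in DMSO for 1 hr at 37 °C, then stimulated with 50 ng/ml PDGF-AA for 5 min. Lysates were captured on anti-phosphotyrosine PY-20 plates and probed with anti-PDGF-Ra plus HRP secondary; absorbance read at 450 nm.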

[1] = figure within parentheses in >100( )

T1 sequence (P16234 24-1089): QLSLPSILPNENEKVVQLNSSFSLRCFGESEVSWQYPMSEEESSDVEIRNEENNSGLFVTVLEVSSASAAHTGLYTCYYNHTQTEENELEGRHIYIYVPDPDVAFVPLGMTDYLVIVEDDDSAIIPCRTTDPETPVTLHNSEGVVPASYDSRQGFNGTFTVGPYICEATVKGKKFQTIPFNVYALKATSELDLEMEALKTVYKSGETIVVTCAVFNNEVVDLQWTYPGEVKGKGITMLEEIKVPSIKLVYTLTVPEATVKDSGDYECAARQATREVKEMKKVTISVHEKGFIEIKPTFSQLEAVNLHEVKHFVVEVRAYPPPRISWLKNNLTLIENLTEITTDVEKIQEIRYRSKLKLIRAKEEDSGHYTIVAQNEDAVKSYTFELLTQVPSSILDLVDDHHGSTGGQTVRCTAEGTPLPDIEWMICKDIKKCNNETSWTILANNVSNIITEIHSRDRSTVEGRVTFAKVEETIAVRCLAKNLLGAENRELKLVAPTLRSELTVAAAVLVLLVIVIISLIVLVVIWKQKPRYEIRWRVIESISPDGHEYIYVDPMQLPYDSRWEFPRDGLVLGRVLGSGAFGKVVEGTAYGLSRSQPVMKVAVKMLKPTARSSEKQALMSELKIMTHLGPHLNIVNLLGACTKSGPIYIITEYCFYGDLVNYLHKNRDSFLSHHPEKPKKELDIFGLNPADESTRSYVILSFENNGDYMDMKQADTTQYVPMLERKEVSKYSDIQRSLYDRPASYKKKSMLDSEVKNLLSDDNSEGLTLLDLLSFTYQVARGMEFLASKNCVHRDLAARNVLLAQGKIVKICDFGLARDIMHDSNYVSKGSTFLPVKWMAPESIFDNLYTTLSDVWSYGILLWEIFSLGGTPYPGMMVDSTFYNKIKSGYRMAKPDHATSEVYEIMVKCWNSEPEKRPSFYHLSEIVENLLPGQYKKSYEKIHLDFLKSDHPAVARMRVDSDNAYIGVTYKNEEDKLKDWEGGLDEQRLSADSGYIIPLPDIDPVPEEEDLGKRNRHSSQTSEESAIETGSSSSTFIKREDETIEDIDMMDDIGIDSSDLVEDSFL

| SMILES | IC50 | inhibition at 0.1 µM [1] | inhibition at 0.1 µM (figure in parentheses in >100( )) | IC50 (Pharmacological Test Example 1) |
| --- | --- | --- | --- | --- |
| COc1cc2nccc(Oc3ccc(NC(=S)NCCN4CCCCC4)c(C)c3C)c2cc1OC [Example 512, N-{4-[(6,7-Dimethoxy-4-quinolyl)oxy]-2,3-dimethylphenyl}-N′-(2-piperidinylethyl)thiourea] | 29 nM |  |  |  |
| COc1cc2nccc(Oc3ccc(NC(=O)OC4CCN(C)CC4)c(C)c3C)c2cc1OC [Example 468, 1-Methyl-4-piperidyl N-{4-[(6,7-dimethoxy-4-quinolyl)oxy]-2,3-dimethylphenyl}carbamate] | > 100 nM | 20% |  |  |
| COc1cc2nccc(Oc3cc(C)c(NC(=S)NCCCN4CCCCC4C)cc3C)c2cc1OC (centres unmarked) [Example 554, N-{4-[(6,7-Dimethoxy-4-quinolyl)oxy]-2,5-dimethylphenyl}-N′-[3-(2-methylpiperidinyl)propyl]thiourea] | > 100 nM | 14% |  |  |
| COc1cc2nccc(Oc3ccc(NC(=O)OC(C#N)c4ccccc4)cc3)c2cc1OC (centres unmarked) [Example 453, Cyano(phenyl)methyl N-{4-[(6,7-dimethoxy-4-quinolyl)oxy]phenyl}carbamate] | > 100 nM | 1% |  |  |
| COc1cc2nccc(Oc3ccc(NC(=O)OC(C#N)c4ccccc4)c(C)c3C)c2cc1OC (centres unmarked) [Example 455, Cyano(phenyl)methyl N-{4-[(6,7-dimethoxy-4-quinolyl)oxy]-2,3-dimethylphenyl}carbamate] | 77 nM |  |  |  |
| COc1cc2nccc(Oc3cc(C)c(NC(=O)OCN4C(=O)c5ccccc5C4=O)cc3C)c2cc1OC [Example 417, (1,3-Dioxo-2,3-dihydro-1H-2-isoindolyl)methyl N-{4-[(6,7-dimethoxy-4-quinolyl)oxy]-2,5-dimethylphenyl}carbamate] | > 100 nM | 42% |  |  |
| CCCC(CCN(CC)CC)OC(=O)Nc1ccc(Oc2ccnc3cc(OC)c(OC)cc23)cc1 (centres unmarked) [Example 441, 1-[2-(Diethylamino)ethyl]butyl N-{4-[(6,7-dimethoxy-4-quinolyl)oxy]phenyl}carbamate] | 70 nM |  |  |  |
| COc1cc2nccc(Oc3cc(C)c(NC(=O)OCCCN4CCCCC4)cc3C)c2cc1OC [Example 414, 3-Piperidinopropyl N-{4-[(6,7-dimethoxy-4-quinolyl)oxy]-2,5-dimethylphenyl}carbamate] | > 100 nM | 27% |  |  |
| COc1cc2ncnc(Oc3ccc(NC(=O)OCCCSc4ccc(C(C)(C)C)cc4)cc3)c2cc1OC [Example 75, 3-{[4-(Tert-butyl)phenyl]sulfanyl}propyl N-{4-[(6,7-dimethoxy-4-quinazolinyl)oxy]phenyl}carbamate] |  |  |  | 25 nM |
| COc1cc2ncnc(Oc3ccc(NC(=O)Sc4ccc(Cl)cc4C)cc3)c2cc1OC [Example 179, 4-Chloro-2-methylphenyl{4-[(6,7-dimethoxy-4-quinazolinyl)oxy]anilino}methanethioate] |  |  |  | 70 nM |
| COc1cc2nccc(Oc3cc(C)c(NC(=O)OC4CCN(C)CC4)cc3C)c2cc1OC [Example 467, 1-Methyl-4-piperidyl N-{4-[(6,7-dimethoxy-4-quinolyl)oxy]-2,5-dimethylphenyl}carbamate] | > 100 nM | 8% |  |  |
| CCN(CC)CCNC(=O)Nc1ccc(Oc2ccnc3cc(OC)c(OC)cc23)cc1C [Example 649, N-[2-(Diethylamino)ethyl]-N′-{4-[(6,7-dimethoxy-4-quinolyl)oxy]-2-methylphenyl}urea] | 39 nM |  |  |  |
| CCN(C(=O)OCc1ccccc1OC)c1ccc(Oc2ncnc3cc(OC)c(OC)cc23)cc1Cl [Example 485, 2-Methoxybenzyl N-{2-chloro-4-[(6,7-dimethoxy-4-quinazolinyl)oxy]phenyl}-N-ethylcarbamate] | > 100 nM | 35% |  |  |
| CCCC(CCC)OC(=O)N(C)c1ccc(Oc2ncnc3cc(OC)c(OC)cc23)cc1 [Example 493, 1-Propylbutyl N-{4-[(6,7-dimethoxy-4-quinazolinyl)oxy]phenyl}-N-methylcarbamate] | 39 nM |  |  |  |

The remaining lines, values ahead:

| IC50 | inhibition at 0.1 µM [1] | inhibition at 0.1 µM (figure in parentheses in >100( )) | IC50 (Pharmacological Test Example 1) | SMILES |
| --- | --- | --- | --- | --- |
| 13 nM |  |  |  | COc1cc2nccc(Oc3ccc(NC(=S)NC(=O)Cc4cccs4)cc3)c2cc1OC [Example 1171, N-{4-[(6,7-Dimethoxy-4-quinolyl)oxy]phenyl}-N′-[2-(2-thienyl)acetyl]thiourea] |
| > 100 nM | 7% |  |  | CCCCCOc1ccc(C(=O)NC(=S)Nc2ccc(Oc3ccnc4cc(OC)c(OC)cc34)c(Cl)c2)cc1 [Example 754, N-{3-Chloro-4-[(6,7-dimethoxy-4-quinolyl)oxy]phenyl}-N′-[4-(pentyloxy)benzoyl]thiourea] |
| 80 nM |  |  |  | CCN(C(=S)NC(=O)CCc1ccccc1OC)c1ccc(Oc2ccnc3cc(OC)c(OC)cc23)cc1 [Example 1142, N-{4-[(6,7-Dimethoxy-4-quinolyl)oxy]phenyl}-N-ethyl-N′-[3-(2-methoxyphenyl)propanoyl]thiourea] |
| < 10 nM |  |  |  | COc1cc2nccc(Oc3ccc(NC(=S)NC(=O)c4ccccc4F)cc3F)c2cc1OC [Example 1160, N-{4-[(6,7-Dimethoxy-4-quinolyl)oxy]-3-fluorophenyl}-N′-(2-fluorobenzoyl)thiourea] |
| > 100 nM |  |  |  | COc1cc2nccc(Oc3ccc(NC(=S)NC(=O)c4ccc(Cl)cc4)c(Cl)c3)c2cc1OC [Example 1174, N-(4-Chlorobenzoyl)-N′-{2-chloro-4-[(6,7-dimethoxy-4-quinolyl)oxy]phenyl}thiourea] |
| 85 nM |  |  |  | CCC(C(=O)NC(=S)Nc1ccc(Oc2ccnc3cc(OC)c(OC)cc23)c(Cl)c1)c1ccccc1 (centres unmarked) [Example 748, N-{3-Chloro-4-[(6,7-dimethoxy-4-quinolyl)oxy]phenyl}-N′-(2-phenylbutanoyl)thiourea] |
| > 100 nM |  | 22% |  | COc1cc2nccc(Oc3ccc(NC(=S)NC(=O)c4ccc(C5CCCCC5)cc4)cc3)c2cc1OC [Example 1124, N-(4-Cyclohexylbenzoyl)-N′-{4-[(6,7-dimethoxy-4-quinolyl)oxy]phenyl}thiourea] |
| > 100 nM | 22% |  |  | COc1cc2ncnc(Oc3ccc(OCC(=O)O)cc3)c2cc1OC [Example 775, 2-{4-[(6,7-Dimethoxy-4-quinazolinyl)oxy]phenoxy}acetic acid] |
| 48 nM |  |  |  | COc1cc2nccc(Oc3ccc(NC(=S)NC(=O)CCc4ccccc4C)cc3Cl)c2cc1OC [Example 732, N-{3-Chloro-4-[(6,7-dimethoxy-4-quinolyl)oxy]phenyl}-N′-[3-(2-methylphenyl)propanoyl]thiourea] |
| < 10 nM |  |  |  | COc1cc2ncnc(Oc3ccc(NC(=S)NC(=O)c4ccccc4F)cc3)c2cc1OC [Example 1161, N-{4-[(6,7-Dimethoxy-4-quinazolinyl)oxy]phenyl}-N′-(2-fluorobenzoyl)thiourea] |
| > 100 nM |  |  |  | COc1cc2nccc(Oc3ccc(NC(=S)NC(=O)c4cc(Cl)cc(Cl)c4)c(Cl)c3)c2cc1OC [Example 1159, N-{2-Chloro-4-[(6,7-dimethoxy-4-quinolyl)oxy]phenyl}-N′-(3,5-dichlorobenzoyl)thiourea] |
| 24 nM |  |  |  | COc1cc2nccc(Oc3ccc(NC(=S)NC(=O)C(C)(C)C)cc3Cl)c2cc1OC [Example 1187, N-{3-Chloro-4-[(6,7-dimethoxy-4-quinolyl)oxy]phenyl}-N′-(2,2-dimethylpropanoyl)thiourea] |
| > 100 nM | 17% |  |  | COC(=O)COc1ccc(Oc2ncnc3cc(OC)c(OC)cc23)cc1 [Example 774, Methyl 2-{4-[(6,7-dimethoxy-4-quinazolinyl)oxy]phenoxy}acetate] |
